Assay results taken from patent US20110152089A1, “HERBICIDAL COMPOSITIONS COMPRISING FLUFENACET” (Bayer CropScience AG, priority 2009, published 2011).

Experiments:
STEME = assay: Resistant biotypes, PE application, greenhouse (Table 6); assay type: in vivo, Stellaria media; settings: g of AS/ha: (A) 90, (B) 300, (C) 140, (A)+(B)+(C) 120 + 600 + 140, iodosulfuron 10; for activity STEME resistant: resistant biotype; for activity STEME sensitive: sensitive biotype
Experimental: (§1) In the standard design of the test, seeds of various broad-leaved weed and weed grass biotypes (origins) were sown in a 8-13 cm diameter pot filled with natural soil of a standard field soil (loamy silt; non-sterile) and covered with a covering soil layer of about 1 cm. The pots were then cultivated in a greenhouse (12-16 h of light, temperature day 20-22° C., night 15-18° C.) until the time of application. The pots were treated on a laboratory track sprayer with spray liquors comprising the compositions according to the invention, mixtures of the prior art or components used individually. Application of the active compounds or active compound combinations formulated as WG, WP, EC or otherwise was carried out at the appropriate growth stages of the plants. The application rate for the spray application was 100-600 l of water/ha. After the treatment, the plants were returned to the greenhouses.
(§2) About 3 weeks after the application, the soil action or/and foliar action was assessed visually according to a scale of 0-100% in comparison to an untreated comparative group: 0%=no noticeable effect compared to the untreated comparative group; 100%=full effect compared to the untreated comparative group.
(§3) (notes: the term “seeds” also includes vegetative propagation forms such as, for example, rhizome pieces; abbreviations used: h light=hours of illumination, g of AS/ha=gram of active substance per hectare, l/ha=liter per hectare, S=sensitive, R=resistant) • 1. Pre-emergence action against weeds: seeds of various broad-leaved weed and weed grass biotypes (origins) were sown in a 8-13 cm diameter pot filled with natural soil of a standard field soil (loamy silt; non-sterile) and covered with a covering soil layer of about 1 cm. The pots were then cultivated in a greenhouse (12-16 h of light, temperature day 20-22° C., night 15-18° C.) until the time of application. The pots were treated at the BBCH stage 00-10 of the seeds/plants on a laboratory track sprayer with spray liquors comprising the compositions according to the invention, mixtures or components used individually, as WG, WP, EC or other formulations. The application rate for the spray application was 100-600 l of water/ha. After the treatment, the plants were returned to the greenhouses and, when required, treated with fertilizer and watered. • 2. Post-emergence action against weeds: seeds of various broad-leaved weed and weed grass biotypes (origins) were sown in a 8-13 cm diameter pot filled with natural soil of a standard field soil (loamy silt; non-sterile) and covered with a covering soil layer of about 1 cm. The pots were then cultivated in a greenhouse (12-16 h of light, temperature day 20-22° C., night 15-18° C.) until the time of application. The pots were treated at various BBCH stages between 11-25 of the seeds/plants, i.e. generally between two to three weeks after the start of the cultivation, on a laboratory track sprayer with spray liquors comprising the compositions according to the invention, mixtures or components used individually, as WG, WP, EC or other formulations. The application rate for the spray application was 100-600 l of water/ha. After the treatment, the plants were returned to the greenhouses and, when required, treated with fertilizer and watered. • 3. Pre-emergence action against weeds with and without incorporation of active compound: seeds of various broad-leaved weed and weed grass biotypes (origins) were sown in a 8-13 cm diameter pot filled with natural soil of a standard field soil (loamy silt; non-sterile). […]

HORVS [1] = assay: Different sowing depths, PE application, crop selectivity, greenhouse (Table 7); assay type: in vivo, Hordeum vulgare, summer barley; settings: for activity HORVS 5 mm (crop plant): sowing depth 5 mm; for activity HORVS 20 mm (crop plant): sowing depth 20 mm
Experimental: as §1, §2, §3

MATCH = assay: Different sowing depths, PE application, greenhouse (Table 7); assay type: in vivo, Matricaria chamomilla; settings: for activity MATCH 5 mm: sowing depth 5 mm; for activity MATCH 20 mm: sowing depth 20 mm
Experimental: as §1, §2, §3

HORVS [2] = assay: PE application with different irrigation, crop selectivity, greenhouse (Table 4); assay type: in vivo, Hordeum vulgare, summer barley; settings: g of AS/ha: (A) 90, (B) 300, (C) 140, (A)+(B)+(C) 90 + 300 + 140
Experimental: as §1, §2, §3

HORVS [3] = assay: Different soil pH, PE application, crop selectivity, greenhouse (Table 8); assay type: in vivo, Hordeum vulgare, summer barley; settings: for activity HORVS pH 7.4 (crop plant): soil pH 7.4, g of AS/ha: (A) 90, (B) 300, (C) 140, (A)+(B)+(C) 90 + 300 + 140; for activity HORVS pH 8.4 (crop plant): soil pH 8.4, g of AS/ha: (A) 90, (B) 300, (C) 140, (A)+(B)+(C) 90 + 300 + 140
Experimental: as §1, §2, §3

[4] = g of AS/ha: (A) 90, (B) 300, (C) 140, (A)+(B)+(C) 90 + 300 + 140
[5] = g of AS/ha: (A) 90, (B) 300, (C) 140, (A)+(B)+(C) 90 + 300 + 140, listed as trifluralin

SMILES | activity STEME resistant (STEME) [%] | activity STEME sensitive (STEME) [%] | activity HORVS 5 mm (crop plant) (HORVS [1]; [4]) [%] | activity HORVS 5 mm (crop plant) (HORVS [1]; [5]) [%] | activity HORVS 20 mm (crop plant) (HORVS [1]; [4]) [%] | activity HORVS 20 mm (crop plant) (HORVS [1]; [5]) [%] | activity MATCH 5 mm (MATCH; [4]) [%] | activity MATCH 5 mm (MATCH; [5]) [%] | activity MATCH 20 mm (MATCH; [4]) [%] | activity MATCH 20 mm (MATCH; [5]) [%] | activity HORVS (crop plant) (HORVS [2]; irrigation from above) [%] | activity HORVS (crop plant) (HORVS [2]; irrigation from below) [%] | activity HORVS pH 7.4 (crop plant) (HORVS [3]) [%] | activity HORVS pH 8.4 (crop plant) (HORVS [3]) [%]
CCCN(CCC)c1c([N+](=O)[O-])cc(C(F)(F)F)cc1[N+](=O)[O-] [(B) trifluralin, 2,6-dinitro-N,N-dipropyl-4-(trifluoromethyl)benzenamine] | 20 | 20 | 25 | 70 | 20 | 30 | 0 | 100 | 30 | 70 | 90 | 60 | 20 | 10
CSc1nnc(C(C)(C)C)c(=O)n1N [(C) metribuzin, 4-amino-6-(1,1-dimethyl-ethyl)-3-(methylthio)-1,2,4-triazin-5-(4H)-one] | 98 | 100 | 70 | – | 30 | – | 100 | – | 70 | – | 80 | 10 | 40 | 50
